Experimental data reported in patent US20080125432A1 (Devgen NV, priority 2004, published 2008).

What was measured:
[1] = tested on: Isus (Kv1.5 + additional channels); test: Whole-cell patch clamp in human atrial myocytes: Isus; format: cell-based; settings: n = 3 cells
Protocol: (§1) The blocking profile of the compounds of the invention is determined on the following channels of the human atrial myocytes: INa, Ito, Isus and IK1 channel currents.
(§2) Human atrial myocytes: Myocytes were prepared from specimens with grossly normal anatomical aspect, excised from hearts of patients with normal P-wave electrocardiogram, undergoing bypass surgery. Human atrial sample were obtained following approval by the ethical committee. […]
(§3) Experiments were performed at room temperature (20-25° C.) for INa and at 32-34° C. for Ito, Isus, IK1. Currents were measured using the whole-cell variant of the patch clamp method. […]
(§4) After rupture of the cell membrane to enter the whole-cell mode, current amplitude and kinetics were allowed to stabilize for 3-7 min before initiating the experimental procedure. K^+ currents recorded from human atrial myocytes were elicited by a 500 ms pulse to +60 mV from a holding potential of −50 mV for Ito and Isus. Ito was measured as a peak current amplitude whereas Isus as a current present at the end of the 500 ms voltage pulse. In addition, the area under the curve, before and after compound, were measured over the course of the pulse period. […]

Kv1.5 = target: T1, Kv1.5 (Homo sapiens, UniProt P22460); test: Whole-cell patch clamp in human atrial myocytes: Kv1.5 current calculated from Isus; format: cell-based
T1 construct: endogenous in cells; host or cells: freshly isolated human atrial myocytes
Protocol: as §1, §2, §3, §4

T1 sequence (P22460 whole entry): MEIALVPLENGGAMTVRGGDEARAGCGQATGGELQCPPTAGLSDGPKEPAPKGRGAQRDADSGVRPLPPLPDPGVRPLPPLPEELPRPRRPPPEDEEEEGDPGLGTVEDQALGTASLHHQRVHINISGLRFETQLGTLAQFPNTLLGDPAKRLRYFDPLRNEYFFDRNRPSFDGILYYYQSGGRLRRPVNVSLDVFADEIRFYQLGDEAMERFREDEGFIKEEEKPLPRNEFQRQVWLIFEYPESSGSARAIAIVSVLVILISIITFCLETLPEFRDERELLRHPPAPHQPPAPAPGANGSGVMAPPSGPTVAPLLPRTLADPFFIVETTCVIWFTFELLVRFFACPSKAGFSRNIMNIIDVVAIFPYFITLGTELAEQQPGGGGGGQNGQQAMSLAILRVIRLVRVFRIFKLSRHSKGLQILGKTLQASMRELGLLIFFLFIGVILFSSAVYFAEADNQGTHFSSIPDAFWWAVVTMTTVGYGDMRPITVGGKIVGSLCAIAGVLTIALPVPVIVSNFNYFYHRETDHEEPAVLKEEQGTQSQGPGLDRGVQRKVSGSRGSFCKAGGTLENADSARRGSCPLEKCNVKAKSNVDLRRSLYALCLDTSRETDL

Block at 10 μM in %: Kv1.5 (calculated) (Kv1.5; 10 μM, n = 3 cells, derived from subtracting the remaining current from the end of pulse current amplitude): 81.1 ± 3.7%
IC50 (Kv1.5; dose-response analysis, Kv1.5 derived from subtracting the remaining current from the end of pulse current amplitude): 1.4 µM
SMILES: COc1ccccc1Nc1nc(C)c(C(=O)N[C@H]2CCC[C@@H]2OCc2ccccc2)s1 [Compound 68, 2-(2-methoxy-phenylamino)-4-methyl-thiazole-5-carboxylic acid (1S,2S)-2-(benzyloxycyclopent-1-yl) amide]
Block at 10 μM in %: Isus (Kv1.5 + additional channels) [1]: 55.2 ± 6.4%
